According to patent publication US20230087766A1, “METHODS OF REACTIVATING LATENT HUMAN IMMUNODEFICIENCY VIRUS AND RELATED COMPOSITIONS” (priority 2017, published 2023):

Tests used:
Type in all cases: cell-based
[1] = tested on: latent HIV in resting CD4+ T cells from HIV-infected individuals under ART; experiment: Quantitative Viral Outgrowth Assay (QVOA), p24 ELISA; conditions: resting CD4+ T cells from 5 HIV-infected individuals under ART; ex vivo
Method: It was tested whether the histone crotonylation inducer, sodium crotonate, can reactivate latent HIV reservoirs from a patient under ART. Peripheral blood samples were obtained from 5 HIV-infected individuals with undetectable plasma viral loads and higher CD4+ T cell numbers (see Table 1). One million resting CD4+ T cells were treated with IL-2, PHA+IL-2, or IL-2+Na-Cro, and HIV p24 production was measured by QVOA using p24 ELISA as a measure of HIV reactivation.
Quantitative Viral Outgrowth Assay: Peripheral blood mononuclear cells (PBMC) were obtained from HIV-infected individuals on suppressive ART (n=5) by continuous-flow leukopheresis. Isolation of resting CD4+ T cells and quantification of replication competent virus was performed as previously described (see S. Dandekar, et al. Current HIV/AIDS reports 4, 10-15 (2007)). […] Cultures were scored as positive if p24 was detected at day 15 and was increased in concentration at day 19. […]

[2] = tested on: histone tails and transcription factors in J-Lat A1 cells; experiment: Western blot of global histone modifications and transcription factors
From the text: FIG. 2 is a series of images and graphs showing that histone crotonylation by sodium crotonate addition re-programs histone tails at the HIV LTR. Panel A illustrates that Na-Cro addition increased global expression of H3K4Cro, H3K4Ac, and H3K18Ac while decreasing H3K27Me3. Panel B illustrates expression of transcription factors after Na-Cro addition in J-Lat Al cells. Panels C-E illustrate that Na-Cro addition re-programmed histone tails at the HIV LTR. Chromatin immunoprecipitation (ChIP) assay was performed by using anti-H3K4Cr, anti-H3K4Ac, and anti-H3K27Me3 antibodies after J-Lat Al cells were treated with 30 mM Na-Cro for 4 hours. PCR primers were specific for the HIV LTR region.
Western Blot Analysis: Western blot analysis was performed by using one million cells treated with LRAs for 6 or 18 hours. Whole cell lysates were prepared using RIPA buffer. Nuclear Extracts were prepared using EPIQUIK™ Total Histone Extraction Kit ([…]™, Farmingdale N.Y.). Antibodies (CELL SIGNALING TECHNOLOGY®, Boston, Mass.) for Cyclin T1, CDK9, CDK9-P, NF-kB, GAPDH, and total H3 were used to detect protein expression under different drug conditions. Antibodies for H3K4Cro (PTM BIOLABS™, Chicago, Ill.), H3K27Me3 (CELL SIGNALING TECHNOLOGY®), H3K4Ac (CELL SIGNALING TECHNOLOGY®), and H3K18Ac (CELL SIGNALING TECHNOLOGY®) were used to measure histone modifications.

latent HIV in U1 cells = experiment: Reactivation of latent HIV in U1 cells by RT-qPCR; conditions: Na-Cro at 40 mM
Method: Cell culture: J-Lat Al cells (derived from Jurkat cells harboring HIV LTR-Tat-GFP gene) and U1 cells (promonocytic cell line harboring one copy of HIV genome with defective tat gene) were obtained from NIH AIDS Reagent Program and cultured at 37° C. with 5% CO2 in RPM11640 medium containing 10% FBS and 1% penicillin-streptomycin as previously described (see G. Jiang, et al. PLoS Pathogens 11, e1005066 (2015)).
For inhibiting ACSS2 and crotonylation, cells were pretreated with ACSS2 inhibitor, AR12 (SELLECK CHEMICALS™, Houston, Tex.), for 30 minutes, followed by Na-Cro treatment for 4 or 18 hours.
Real-Time PCR Analysis: HIV gene expression was measured using real-time PCR in J-Lat Al cells treated with LRAs. Total nucleic acid was extracted using RNEASY™ Kit, genomic DNA digested using DNase I and total RNA reverse transcribed using Superscript III to synthesize cDNA. […] […] TAMRA-3′ (SEQ ID NO:3).

ACSS2 = ACSS2 expression in J-Lat A1 cells; conditions: Na-Cro treatment
From the text: FIG. 3 is a series of graphs showing that suppression of acetyl-CoA synthetase 2 (ACSS2) enzyme disrupts crotonyl-CoA induced reactivation of latent HIV. Panel A illustrates that Na-Cro addition to J-Lat Al cells increased expression of ACSS2 enzyme. **, p<0.01 compared with control treatment. Panel B illustrates expression of ACSS2 after ACSS2 siRNA knockdown in TZM-bl HIV reporter cells. **, p<0.01 compared with control siRNA. Panel C illustrates knockdown of ACSS2 decreased Na-Cro-driven HIV transcription. *, p<0.05 compared with control siRNA. Panels D and E illustrate that pretreatment with ACSS2 inhibitor, AR12, dampens reactivation of latent HIV (see panel D) by inhibition of histone crotonylation (see panel E) at the HIV LTR. **, p<0.01 and ***, p<0.001, compared with control treatment. ##, p<0.01 and ###, p<0.001 compared with Na-Cro treatment.

With `C/C=C/C(=O)[O-].[Na+]` [Na-Cro, sodium crotonate] the “replication-competent HIV recovered (HIV reactivation, QVOA)” value [1] was “four of the five participants”, the “expression of transcription factors involved in HIV transcription” value ([2]; J-Lat A1 cells) was “did not alter transcription factors that are involved in HIV transcription except a minor induction of CDK9 protein” and the “global H3K4 acetylation” value ([2]; Na-Cro-treated T cells) was “increased”. For the same compound, the “global H3K4 crotonylation” value ([2]; Na-Cro-treated T cells) was “increased”, the “global H3K18 acetylation” value ([2]; Na-Cro-treated T cells) was “increased” and the “global H3K27 trimethylation” value ([2]; Na-Cro-treated T cells) was “markedly decreased”. The “increase in viral transcription compared to untreated controls” value (latent HIV in U1 cells) was 6 fold and the “increase in ACSS2 expression” value (ACSS2) was 70 fold.
